From EP0521799A1, “Ophthalmic compositions” (YISSUM RESEARCH DEVELOPMENT COMPANY OF THE HEBREW …, priority 1991, dated 1993) come the findings set out here.

Data set [1] relates to S.aureus. As to the kind of experiment: Preservative efficacy in emulsion (Table 2). The data set is classed as cell-based. To be noted: for Number of Organisms in 1ml Emulsion: S.aureus. As to the method:
(§1) To each 20ml of emulsion, an inoculum of a microorganismal suspension (at an initial concentration of about 1-3 x 10⁸ cells per ml) was added under sterile conditions to a final concentration of about 1-3 x 10⁶ cells per ml of emulsion. Immediately upon inoculation and at 24, 48 hours, 7, 14 and 28 days thereafter, samples of 1 ml were withdrawn and eluted in a pH 7.0 sodium chloride buffer (B.P. 88 neutralizing buffer, DIFCO Laboratories, Detroit, MI, USA) to neutralize the preservatives. After about 20-30 minutes of exposure of sample to the neutralizing buffer, samples were filtered through a 0.45µm cellulose acetate filter (TE, Schueller & Schleicher). The filter and the holder were washed with 3 portions of 100 ml of sodium chloride peptone solution and then the filter was transferred to a petri dish with PCPL media which consisted of the following ingredients (per 400 ml): 20g tryptone, 1.0g yeast extract, 0.4g. dextrose, 6.0 bactoagar, 0.4g lethicin and 8.0ml Tween 80.
(§2) At 24 hours or at 2 to 5 days after the withdrawal of the sample, the number of the microorganism was counted on the petri dishes. (In order to achieve a proper count of the microorganism dilutions of the initially withdrawn sample to obtain a dilution factor of 1:10-1:50,000, were made).
(§3) Two blank emulsions without a preservative served as control for the two different neutralizing buffers.

Data set [2] has as its system C. albicans. Nature of the data set: Preservative efficacy in emulsion (Table 2). The class given is cell-based. How it is done:
as §1, §2, §3

In data set [3] the test system is P. aeruginosa. Nature of the data set: Preservative efficacy in emulsion (Table 2). The class given is cell-based. As to the method: as §1, §2, §3
Data set [4] relates to E. coli. Nature of the data set: Preservative efficacy in emulsion (Table 2). The data set is classed as cell-based. As to the method: as §1, §2, §3
Data set [5] has as its system A. niger. As to the kind of experiment: Preservative efficacy in emulsion (Table 2). The data set is classed as cell-based. As to the method: as §1, §2, §3
Data set [6] concerns microorganisms. As to the kind of experiment: Preservative efficacy of single preservatives, overall judgement. The class given is cell-based. As to the method:
as §1, §2, §3
The same experiment was also carried out with Chlorbutol alone instead of Thimerosal.

The test system of data set [7] is Albino rabbits. Nature of the data set: Intraocular pressure (IOP) after a single topical dose of HU-211 emulsion. The data set is classed as in vivo. To be noted: for decrease of IOP in the contralateral eye: untreated left eye, about 4 hours after administration. How it is done: Albino rabbits of both sexes weighing 2.25 kg were used. All rabbits chosen had no signs of ocular pathology.
(§4) The intraocular pressure (IOP) was measured by a Digilab pneumotonometer model 30R. For IOP measurement, one drop of the local anaesthetic benoxinate HCl (Fischer Pharmaceuticals, Israel) diluted 1:3 in sterile solution was instilled into each eye. In order to ensure reproducibility of IOP readings, the animals were accustomed to the experimental procedure by repeated handling.
Basal IOP was measured for 2 days prior to drug application by measuring the IOP 5 times over an 11 hrs. period (starting at 8am and ending at 7pm). Each time IOP was measured twice and an average of two readings was obtained.
IOP was measured at the time of drug application and at 1.5, 4, 6 and 11 hrs. thereafter.
Two groups of animals were tested, each by a different experimenter. The first group which consisted of 20 rabbits is referred to herein as " Group I" and the second group which consisted of 10 rabbits is referred to herein as "Group II". The two groups received, however, exactly the same treatment.
The treatment consisted of the application of a single dose of 50µl of a 0.1% (w/v) of HU-211 preparation in accordance with the invention into the lower cul-de-sac of the right eye of each rabbit. The eye was then kept open for a few more seconds, while excessive liquid spilling over the eyelid was wiped off. The left eye was not treated.

Data set [8] in a line: HU-211 concentration in emulsions on storage. The class given is physicochemical. Conditions: in emulsion. As to the method:
The HU-211 concentration was measured at different temperatures after various storage times and the results are shown in Fig. 11.

The subject of data set [9] is ocularly hypertensive rabbits. As to the kind of experiment: IOP after topical Δ⁸-THC composition, hypertensive rabbits. The class given is in vivo, albino rabbits. Conditions: composition of the invention comprising 0.4% Δ⁸-THC. How it is done: as §4
(§5) A composition in accordance with the invention comprising 0.4% Δ⁸-THC was administered to the right eyes of albino rabbits. The administration of the composition and IOP measurements were performed as described above under (A).
(§6) Both ocularly hypertensive and normo-tensive albino rabbits were used in the study.

Data set [10] has as its system ocularly normo-tensive rabbits. As to the kind of experiment: IOP after topical Δ⁸-THC composition, normo-tensive rabbits. The class given is in vivo, albino rabbits. To be noted: composition of the invention comprising 0.4% Δ⁸-THC. How it is done:
as §4, §5, §6

Where [11] appears, read: Oh (immediately upon inoculation).
The mark [12] stands for this setting: single preservative in emulsion.
Setting [13] is: treated eye, single dose 50µl of 0.1% (w/v) HU-211.

As to `N=C(NCCCCCCNC(=N)NC(=N)Nc1ccc(Cl)cc1)NC(=N)Nc1ccc(Cl)cc1` [CHL, Chlorhexidine gluconate], the “Number of Organisms in 1ml Emulsion” value in data set [1] (setting [11]) was 3.5 x 10^6; in data set [2] (24h), greater than 600; in data set [2] (48h), 433; in data set [2] (setting [11]) it was 0.9 x 10^6; in [3] (24h), 10^7; in [3] (48h) it was 10^7. The “Number of Organisms in 1ml Emulsion” value in data set [3] (setting [11]) is recorded as 4.2 x 10^6; in data set [4] (48h), 5 x 10^6; in data set [4] (setting [11]), 5.5 x 10^6; in [5] (24h) it was 38; in [5] (48h), 54.

For the compound `CC(C)(O)C(Cl)(Cl)Cl` [Chlorbutol], in [6] (setting [12]), the “compliance with B.P. requirements” value was “did not meet the B.P. requirements” and the preservative protection entry is “No total preservative protection was achieved”.

With `CCCCCCC(C)(C)c1cc(O)c2c(c1)OC(C)(C)[C@H]1CC=C(CO)C[C@H]21` [HU-211], the “decrease of IOP in the contralateral eye” value is “about 11.4%” in data set [7] (Group I) and roughly 12.1% in [7] (Group II). In addition, in [7] (treated eye, percentage of IOP change from basal level (Fig. 14)), the “time until which the decrease in IOP persisted” value is “about 11 hours”. In data set [7] (setting [13]), the “time after which basal IOP levels were resumed” value is on record as “about 11 hrs”. The “time for which the decrease in IOP lasted” value in [7] (setting [13]) is “about 6 hrs”. The IOP result in [7] (treated right eye, single dose of 50µl of 0.1% (w/v) HU-211 emulsion) was “dramatic decrease in IOP”. Besides, the HU-211 concentration result in [8] (8 months at 4°C, 25°C, 30°C and 37°C) is recorded as “essentially no change”; in data set [8] (storage at 50°C), “marked decrease in concentration”.

Turning to `C[CH2][Hg][S]c1ccccc1C(=O)O` [THI, Thimerosal], the “maintenance of total killing” value was “contamination was noted” in data set [1] (S. aureus, after 48 hours) and “contamination was noted” in data set [3] (after 48 hours). Besides, the preservative protection entry in data set [2] (at 24h) is on record as “not able to protect totally”. Besides, the “preservative effect compared with the other tested preservatives” value in data set [6] (0.01% Thimerosal vs 0.02% benzalkonium chloride and 0.05% chlorhexadiene gluconate) is on record as “much better preservative effect”.

With Benzalkonium chloride [BZK], the “Number of Organisms in 1ml Emulsion” value in [1] (24h) is given as 10^7; in data set [1] (48h) it was 10^7; in [1] (setting [11]), 7.3 x 10^6; in data set [2] (24h) it was greater than 600; in data set [2] (48h), 433; in data set [2] (setting [11]), 1.0 x 10^6. For the same compound, the “Number of Organisms in 1ml Emulsion” value in data set [3] (24h) is 10^7; in data set [3] (48h) it was 10^7; in [3] (setting [11]), 4.2 x 10^6; in data set [4] (24h) it was 10^7; in [4] (48h) it was 5 x 10^6; in [4] (setting [11]), 2.6 x 10^6. For the same compound, the entries for the “Number of Organisms in 1ml Emulsion” value in data set [5] (24h), in data set [5] (48h) and in [5] (setting [11]) were 29, 43 and 1.5 x 10^4, respectively.

In the case of Δ⁸-THC, the “duration of the reduction of IOP” value in [9] and in data set [10] was “long-lasting” in each case. For the same compound, the IOP result in data set [9] (right eye) and in data set [10] (right eye) was “dramatically reduces the IOP” in each case.
